Biological target: GST-Xa-hAAK1 (Homo sapiens (Human), UniProt Q2M2I8)
Test: AAK1 Kinase Assay
Format: biochemical
Settings: bacterially expressed GST-Xa-hAAK1 3.5 nM; ATP 22 μM; fluoresceinated peptide 1.5 μM; 3 hours at room temperature; Caliper LabChip 3000
Procedure: The assays were performed in U-bottom 384-well plates. […] The reactions were initiated by the combination of bacterially expressed, GST-Xa-hAAK1 with substrates and test compounds. The reactions were incubated at room temperature for 3 hours and terminated by adding 60 μl of 35 mM EDTA buffer to each sample. The reactions were analyzed on the Caliper LabChip 3000 (Caliper, Hopkinton, Mass.) by electrophoretic separation of the fluorescent substrate and phosphorylated product. […] Compounds were dissolved at 10 mM in dimethylsulfoxide (DMSO) and evaluated at eleven concentrations. IC50 values were derived by non-linear regression analysis.

Chain of GST-Xa-hAAK1 (Q2M2I8 whole entry): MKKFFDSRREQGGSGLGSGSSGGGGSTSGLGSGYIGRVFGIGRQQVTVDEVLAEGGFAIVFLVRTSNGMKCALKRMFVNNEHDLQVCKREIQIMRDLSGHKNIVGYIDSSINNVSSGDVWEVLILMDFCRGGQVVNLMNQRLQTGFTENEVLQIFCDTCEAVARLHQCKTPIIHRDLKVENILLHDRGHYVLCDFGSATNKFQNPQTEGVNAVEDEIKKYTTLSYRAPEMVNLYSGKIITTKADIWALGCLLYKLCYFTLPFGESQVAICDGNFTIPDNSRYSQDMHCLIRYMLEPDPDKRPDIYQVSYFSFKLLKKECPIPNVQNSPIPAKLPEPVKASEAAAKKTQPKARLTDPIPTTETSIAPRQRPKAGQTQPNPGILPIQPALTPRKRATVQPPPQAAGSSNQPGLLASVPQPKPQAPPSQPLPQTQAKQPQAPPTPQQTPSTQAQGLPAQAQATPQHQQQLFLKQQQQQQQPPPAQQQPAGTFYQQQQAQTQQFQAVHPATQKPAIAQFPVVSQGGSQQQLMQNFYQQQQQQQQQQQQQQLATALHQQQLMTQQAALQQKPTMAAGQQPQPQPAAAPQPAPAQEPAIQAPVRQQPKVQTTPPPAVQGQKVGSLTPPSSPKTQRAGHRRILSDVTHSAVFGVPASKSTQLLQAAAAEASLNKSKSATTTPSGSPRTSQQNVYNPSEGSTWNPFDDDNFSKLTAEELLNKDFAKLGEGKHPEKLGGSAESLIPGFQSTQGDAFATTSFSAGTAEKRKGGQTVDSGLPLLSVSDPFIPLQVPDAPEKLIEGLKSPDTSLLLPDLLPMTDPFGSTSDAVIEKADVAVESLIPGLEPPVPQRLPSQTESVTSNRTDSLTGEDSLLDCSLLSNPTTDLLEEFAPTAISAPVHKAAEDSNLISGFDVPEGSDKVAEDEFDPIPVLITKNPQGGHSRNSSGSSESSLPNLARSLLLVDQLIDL

| SMILES | IC50 [nM] |
| --- | --- |
| CC(C)C[C@](C)(N)COc1ccc(-c2ccnc(C(F)(F)F)n2)cc1F [Example 331, (S)-1-(2-fluoro-4-(2-(trifluoromethyl)pyrimidin-4-yl)phenoxy)-2,4-dimethylpentan-2-amine] | 45 |
| CC(C)C[C@](C)(N)COc1ccc(-c2ccnc(C(C)C)n2)cc1F [Example 337, (S)-1-(2-fluoro-4-(2-isopropylpyrimidin-4-yl)phenoxy)-2,4-dimethylpentan-2-amine] | 886 |
| Cc1cc(-c2ccnc(F)c2)ncc1OC[C@@](C)(N)CC(C)C [Example 344, (S)-1-((2′-fluoro-4-methyl-[2,4′-bipyridin]-5-yl)oxy)-2,4-dimethylpentan-2-amine] | 26 |
| Cc1nc(-c2ccnc(C(F)(F)F)c2)ccc1OC[C@@](C)(N)CC(C)C [Example 348, (S)-2,4-dimethyl-1-((6-methyl-2′-(trifluoromethyl)-[2,4′-bipyridin]-5-yl)oxy)pentan-2-amine] | 512 |
| Cc1cc(-c2ccnc(C(F)(F)F)c2)ncc1OC[C@@](C)(N)CC(C)C [Example 349, (S)-2,4-dimethyl-1-((4-methyl-2′-(trifluoromethyl)-[2,4′-bipyridin]-5-yl)oxy)pentan-2-amine] | 70 |
| Cc1cc(-c2ccc(OC[C@@](C)(N)CC(C)C)c(C(F)F)c2)ncn1 [Example 350, (S)-1-(2-(difluoromethyl)-4-(6-methylpyrimidin-4-yl)phenoxy)-2,4-dimethylpentan-2-amine] | 39 |
| Cc1nccc(-c2ccc(OC[C@](C)(N)CC(C)C)c(C)n2)n1 [Example 354, (R)-2,4-dimethyl-1-((2-methyl-6-(2-methylpyrimidin-4-yl)pyridin-3-yl)oxy)pentan-2-amine] | 321 |
| CC(C)C[C@](C)(N)COc1ccc(-c2ccnc(C(F)(F)F)c2)nc1C(F)F [Example 356, (S)-1-((6-(difluoromethyl)-2′-(trifluoromethyl)-[2,4′-bipyridin]-5-yl)oxy)-2,4-dimethylpentan-2-amine] | 82 |
| COC(=O)Nc1nccc(-c2cnc(OC[C@](C)(N)CC(C)C)c(C)c2)n1 [Example 372, (R)-methyl (4-(6-((2-amino-2,4-dimethylpentyl)oxy)-5-methylpyridin-3-yl)pyrimidin-2-yl)carbamate] | 236 |
| COC(=O)Nc1nccc(-c2cnc(OC[C@](C)(N)CC(C)C)c(F)c2)n1 [Example 373, (R)-methyl (4-(6-((2-amino-2,4-dimethylpentyl)oxy)-5-fluoropyridin-3-yl)pyrimidin-2-yl)carbamate] | 684 |
| COC(=O)Nc1nccc(-c2cnc(OC[C@@](C)(N)CC(C)C)cc2C)n1 [Example 374, (S)-methyl (4-(6-((2-amino-2,4-dimethylpentyl)oxy)-4-methylpyridin-3-yl)pyrimidin-2-yl)carbamate] | 339 |
| COC(=O)Nc1nccc(-c2cnc(OC[C@@](C)(N)CC(C)C)c(C)c2)n1 [Example 379, (S)-methyl (4-(6-((2-amino-2,4-dimethylpentyl)oxy)-5-methylpyridin-3-yl)pyrimidin-2-yl)carbamate] | 35 |
| Cc1cc(-c2ccc(OC[C@@](C)(N)CC(C)C)c(C)c2)ncn1 [Example 384, (S)-2,4-dimethyl-1-(2-methyl-4-(6-methylpyrimidin-4-yl)phenoxy)pentan-2-amine] | 46 |
| COc1cc(-c2cnc(OC[C@@](C)(N)CC(C)C)c(C#N)c2)ccn1 [Example 385, (S)-6-((2-amino-2,4-dimethylpentyl)oxy)-2′-methoxy-[3,4′-bipyridine]-5-carbonitrile] | 50 |
| Cc1cc(-c2ccc(OC[C@@](C)(N)CC(C)C)c(CF)n2)ncn1 [Example 387, (S)-1-((2-(fluoromethyl)-6-(6-methylpyrimidin-4-yl)pyridin-3-yl)oxy)-2,4-dimethylpentan-2-amine] | 1010 |
| Cc1cc(-c2cc(F)c(OC[C@@](C)(N)CC(C)C)cc2F)ncn1 [Example 435, (S)-1-(2,5-difluoro-4-(6-methylpyrimidin-4-yl)phenoxy)-2,4-dimethylpentan-2-amine] | 63 |

Now those with a lower IC50, led by results:

| IC50 [nM] | SMILES |
| --- | --- |
| 0.8 | Cc1cc2c(-c3ccc(OC[C@@](C)(N)CC(C)C)c(C(F)(F)F)c3)ccnc2[nH]1 [Example 327, (S)-2,4-dimethyl-1-(4-(2-methyl-1H-pyrrolo[2,3-b]pyridin-4-yl)-2-(trifluoromethyl)phenoxy)pentan-2-amine] |
| 0.4 | Cc1cc2c(-c3ccc(OC[C@@](C)(N)CC(C)C)c(C#N)c3)ccnc2[nH]1 [Example 328, (S)-2-((2-amino-2,4-dimethylpentyl)oxy)-5-(2-methyl-1H-pyrrolo[2,3-b]pyridin-4-yl)benzonitrile] |
| 2.4 | Cc1nccc(-c2ccc(OC[C@@](C)(N)CC(C)C)c(C)c2)n1 [Example 329, (S)-2,4-dimethyl-1-(2-methyl-4-(2-methylpyrimidin-4-yl)phenoxy)pentan-2-amine] |
| 7.3 | Cc1cc(-c2ccnc(C(F)(F)F)n2)ccc1OC[C@@](C)(N)CC(C)C [Example 330, (S)-2,4-dimethyl-1-(2-methyl-4-(2-(trifluoromethyl)pyrimidin-4-yl)phenoxy)pentan-2-amine] |
| 19 | Cc1nc(-c2cc(N)ncn2)ccc1OC[C@@](C)(N)CC(C)C [Example 343, (S)-6-(5-((2-amino-2,4-dimethylpentyl)oxy)-6-methylpyridin-2-yl)pyrimidin-4-amine] |
| 1.4 | Cc1nccc(-c2ccc(OC[C@@](C)(N)CC(C)C)c(CF)c2)n1 [Example 352, (S)-1-(2-(fluoromethyl)-4-(2-methylpyrimidin-4-yl)phenoxy)-2,4-dimethylpentan-2-amine] |
| 1.1 | CC(C)C[C@](C)(N)COc1ccc(-c2ccnc(CF)c2)nc1C(F)F [Example 355, (S)-1-((6-(difluoromethyl)-2′-(fluoromethyl)-[2,4′-bipyridin]-5-yl)oxy)-2,4-dimethylpentan-2-amine] |
| 4.5 | Cc1cc(-c2ccnc(Cl)n2)ccc1OC[C@@](C)(N)CC(C)C [Example 367, (S)-1-(4-(2-chloropyrimidin-4-yl)-2-methylphenoxy)-2,4-dimethylpentan-2-amine] |
| 1.4 | CC(C)C[C@](C)(N)COc1ccc(-c2ccnc(Cl)n2)cc1C(F)(F)F [Example 370, (S)-1-(4-(2-chloropyrimidin-4-yl)-2-(trifluoromethyl)phenoxy)-2,4-dimethylpentan-2-amine] |
| 2.6 | COC(=O)Nc1nccc(-c2cnc(OC[C@@](C)(N)CC(C)C)c(Cl)c2)n1 [Example 375, (S)-methyl (4-(6-((2-amino-2,4-dimethylpentyl)oxy)-5-chloropyridin-3-yl)pyrimidin-2-yl)carbamate] |
| 1.4 | CC(C)C[C@](C)(N)COc1ccc(-c2ccnc(Cl)n2)cc1C#N [Example 378, (S)-2-((2-amino-2,4-dimethylpentyl)oxy)-5-(2-chloropyrimidin-4-yl)benzonitrile] |
| 2 | COc1cc(-c2ccc(OC[C@@](C)(N)CC(C)C)c(C(F)F)c2)ccn1 [Example 383, (S)-1-(2-(difluoromethyl)-4-(2-methoxypyridin-4-yl)phenoxy)-2,4-dimethylpentan-2-amine] |
| 13 | COc1cc(-c2ccc(OC[C@@](C)(N)CC(C)C)c(C)c2)ccn1 [Example 386, (S)-1-(4-(2-methoxypyridin-4-yl)-2-methylphenoxy)-2,4-dimethylpentan-2-amine] |
| 4.7 | COC(=O)Nc1nccc(-c2ccc(OC[C@@](C)(N)CC(C)C)c(CF)n2)n1 [Example 388, (S)-methyl (4-(5-((2-amino-2,4-dimethylpentyl)oxy)-6-(fluoromethyl)pyridin-2-yl)pyrimidin-2-yl)carbamate] |
| 0.7 | CC(C)CC(=O)Nc1cc(-c2ccc(OC[C@@](C)(N)CC(C)C)c(C(F)(F)F)c2)ccn1 [Example 395, (S)-N-(4-(4-((2-amino-2,4-dimethylpentyl)oxy)-3-(trifluoromethyl)phenyl)pyridin-2-yl)-3-methylbutanamide] |
| 1.6 | CCC(C)CC(=O)Nc1cc(-c2ccc(OC[C@@](C)(N)CC(C)C)c(C(F)(F)F)c2)ccn1 (stereo partly drawn) [Example 396, N-(4-(4-(((S)-2-amino-2,4-dimethylpentyl)oxy)-3-(trifluoromethyl)phenyl)pyridin-2-yl)-3-methylpentanamide] |
| 0.7 | CC(C)CCC(=O)Nc1cc(-c2ccc(OC[C@@](C)(N)CC(C)C)c(C(F)(F)F)c2)ccn1 [Example 397, (S)-N-(4-(4-((2-amino-2,4-dimethylpentyl)oxy)-3-(trifluoromethyl)phenyl)pyridin-2-yl)-4-methylpentanamide] |
| 3.5 | Cc1nc(-c2ccnc(N)c2)ccc1OC[C@@](C)(N)CC(C)C [Example 422, (S)-5-((2-amino-2,4-dimethylpentyl)oxy)-6-methyl-[2,4′-bipyridin]-2′-amine] |
| 5.4 | Cc1cc(-c2cc(N)ncn2)ccc1OC[C@@](C)(N)CC(C)C [Example 431, (S)-6-(4-((2-amino-2,4-dimethylpentyl)oxy)-3-methylphenyl)pyrimidin-4-amine] |
| 0.7 | COC(=O)Nc1cc(-c2ccc(OC[C@@](C)(N)CC(C)C)c(C(F)(F)F)c2)ncn1 [Example 432, (S)-methyl (6-(4-((2-amino-2,4-dimethylpentyl)oxy)-3-(trifluoromethyl)phenyl)pyrimidin-4-yl)carbamate] |
| 1.8 | COC(=O)Nc1cc(-c2ccc(OC[C@@](C)(N)CC(C)C)c(C)c2)ncn1 [Example 433, (S)-methyl (6-(4-((2-amino-2,4-dimethylpentyl)oxy)-3-methylphenyl)pyrimidin-4-yl)carbamate] |
| 6.2 | Cc1cc(-c2ccc(OC[C@@](C)(N)CC(C)C)c(C#N)c2)ncn1 [Example 436, (S)-2-((2-amino-2,4-dimethylpentyl)oxy)-5-(6-methylpyrimidin-4-yl)benzonitrile] |

— patent US10544120B2, “Biaryl kinase inhibitors” (BRISTOL-MYERS SQUIBB COMPANY, priority 2015, dated 2020)
